Source: patent publication US20230081986A1, “METHOD AND REAGENTS TO IMPROVE NONANIMAL OCULAR TOXICITY TESTS” (Lebrun Labs LLC, priority 2021, published 2023)

Key:
[1] = literature review [11]; cited from earlier work
[2] = test system: rabbit cornea; test: Cornea exposure for different times, with and without the esterase inhibitor ebelactone; details: for state of the cornea: 6-minute exposure
Description: FIG. 2 depicts the effects of ebelactone on rabbit cornea.
To test this hypothesis, we incubated corneas with 100 µL of the test chemical for different exposure times and observed that methyl cyanoacetate produced a toxic effect on the eye after 6 minutes of exposure. To confirm that this increased toxicity was metabolically related, eyes were treated with ebelactone, an inhibitor of nonspecific esterases. […] Based on these findings, we updated the IVD EIT method to include the following: Each chemical is first tested using a direct 1-minute application to the eye; if negative, the chemical is then retested for 6 minutes using the metabolic test (META). All of the steps of the META test are the same as the direct test except for the dosing step. For the META, 100 µL of tear solution (saline with ascorbic acid, protein) is first added to the dosing ring, followed by the addition of 100 µL of the material to be tested.

COC(=O)CC#N [methyl cyanoacetate]
classification by most nonanimal tests [1]: misclassified as FN | state of the cornea ([2]; in the presence of ebelactone): somewhat swollen but there are mostly viable cells | state of the cornea ([2]; without ebelactone): swollen with no viable cells | effect on the eye ([2]; 100 µL, after 6 minutes of exposure): toxic effect
